Laboratory results from patent US7815900B1, “Use of C3-C5 monosaccharides to protect keratinous fibers” (L'Oréal S.A., priority 2000, dated 2010).

Assays:
[1] = DSC doublet peak area (α-structure) of hair after heat cycles; settings: for Doublet Peak Area: 0.06 M solutions
Procedure: (§1) Normal blonde hair was bleached with Clairol Basic White Bleach (40 volume H2O2) for 20 min at standard room temperature and humidity. The bleached swatches were rinsed with tap water, and soaked in an excess of deionized water for 2 hours. The swatches were air-dried and equilibrated for 48 hours prior to further treatment. Some of the bleached swatches were subsequently “permed” using a Reforming Lotion (10% TGA, pH 8.8, 20 minutes) and then neutralized with 2% H2O2, pH 3 (5 minutes). The bleached/permed swatches were rinsed with tap water, and soaked in an excess of deionized water for 2 hours. The swatches were air-dried and equilibrated for 48 hours prior to further treatment. The swatches that were heat treated were treated with 0.06M solutions of hexoses and pentoses for 10 min at 45° C. and then were heated for 12 cycles. The swatches were rinsed after the heat application.
(§2) In the DSC tests, finely cut hair (4-5 mg) was crimped in an aluminum pan that was punctured prior to each run. The samples were heated from 25° C. to 300° C., at a scanning rate of 20° C./min, with 5 runs per treatment. The results were averaged.
(§3) Normal blonde hair was bleached with Clairol Basic White Bleach, 40 volume H2O2, for 20 min at room temperature. One batch of normal and bleached hair swatches underwent five heat cycles at 130° C., where one treatment cycle involved the following steps (1-4):
(§4) 1. The swatches were treated with 0.06 M solutions of monosaccharides in deionized water (about 1 wt %) for 10 min at 45° C.
(§5) 2. The treated swatches were blow-dried for 1 min.
(§6) 3. The heat was applied for 1 min in the form of a flat hair iron Windmere “Solid Gold” (130° C.).
(§7) 4. The swatches were rinsed and blot-dried with a paper-towel.
(§8) The treatment solutions included four pentoses (D-xylose, D-arabinose, D-lyxose, and D-ribose, 1% each) and one hexose (1.2% D-glucose). Deionized water was used as a control treatment. After the heat experiment, the hair was rinsed in water, air-dried, and equilibrated for 24 hours in the humidity chamber at 25° C. and 50% RH prior to further testing. These swatches are referred to as treated at 130° C.
(§9) A second batch of normal and bleached hair swatches were treated in a similar way and blow-dried, without application of the hot iron. The treatment was also repeated 5 times, the swatches from the second batch are referred to as treated at 45° C.
Normal blonde hair was divided in two batches. The hair from the first batch was bleached with Clairol Basic White Bleach, 40 volume H2O2, for 20 min at room temperature and humidity. The hair from the second batch was first bleached as above, and then permed: Reforming lotion-10% Thioglycolic acid, pH 8.8, 20 min; neutralizer-2% hydrogen peroxide, 5 min. The oxidatively damaged hair was equilibrated for 24 hours prior to further testing.
(§10) Both the bleached and the bleached/permed hair were subjected to heat treatment, as in Example 2. The heat treatment experiment involved 12 heat cycles including application of sugar or control solution before each heat application, and rinsing after the heat application. Deionized water was used as a control treatment.
(§11) After the heat experiment, the hair was rinsed in water, air-dried, and equilibrated for 24 h in the humidity chamber at 25° C. and 50% RH prior to further testing. The effect of the hexoses vs. pentoses on the dry tensile strength (INSTRON) and the alpha-structure (doublet peak area, DSC) was tested on the bleached hair (Table 13). The effect of a hexose (D-glucose) vs. a pentose (D-Xylose) on wet tensile strength (DIA-STRON) was tested both on the bleached and the bleached/permed hair (Table 14). Application of 0.06M solutions of pentoses protected the bleached and the bleached/permed hair against thermal damage (α-structure; wet and dry tensile strength).

[2] = Dry tensile strength (Instron) after heat cycles; settings: for protection of dry tensile strength, in words: hair treated 5 cycles at 45° C. and at 130° C.
Procedure: as §1
(§12) Tensile strength was determined using both the Instron (50 dry fibers per tests) and the Dia-Stron (100 wet fibers per test), with the stretching rate of 100 mm/min. The following parameters were determined: Young's Modulus (N/m^2), Work to stretch 25% (J/m^2); Extension to Break (degree of elongation) (%); Work to Break (J/m^2).
as §3, §4, §5, §6, §7, §8, §9, §10, §11

[3] = DSC doublet peak area (α-structure) of hair after heat cycles; settings: normal blonde hair
Procedure: as §1, §2, §3, §4, §5, §6, §7, §8, §9
Normal blonde hair was subjected to 12 heat cycles, as described in Example 2, using the following treatment solutions: 0.1% D-Xylose (pentose), 0.1% D-Erythrose (tetrose), and 0.1% D-Glyceraldehyde (triose). Each of the C3 to C5 monosaccharides was effective in protecting or reducing the damage to the α-structure of the hair, as compared to water treatment (Table 15).
Normal blonde hair was subjected to 12 heat cycles, as described in Example 2, using 0.1 wt % of the pentose amine derivative, D-Lyxosylimine in deionized water.

[4] = Dry tensile strength (Instron) after heat cycles; settings: normal blonde hair, 5 heat cycles at 130° C., 0.06 M solutions, n = 50 fibers
Procedure: as §12, §3, §4, §5, §6, §7, §8, §9

[5] = DSC doublet peak area (α-structure) of hair after heat cycles; settings: bleached/permed hair, 12 heat cycles, 0.06 M
Procedure: Normal blonde hair was bleached with Clairol Basic White Bleach (40 volume H2O2) for 20 min at standard room temperature and humidity. The bleached swatches were rinsed with tap water, and soaked in an excess of deionized water for 2 hours. The swatches were air-dried and equilibrated for 48 hours prior to further treatment. Some of the bleached swatches were subsequently “permed” using a Reforming Lotion (10% TGA, pH 8.8, 20 minutes) and then neutralized with 2% H2O2, pH 3 (5 minutes). The bleached/permed swatches were rinsed with tap water, and soaked in an excess of deionized water for 2 hours. The swatches were air-dried and equilibrated for 48 hours prior to further treatment. The swatches that were heat treated were treated with 0.06M solutions of hexoses and pentoses for 10 min at 45° C. and then were heated for 12 cycles. The swatches were rinsed after the heat application. In the DSC tests, finely cut hair (4-5 mg) was crimped in an aluminum pan that was punctured prior to each run. The samples were heated from 25° C. to 300° C., at a scanning rate of 20° C./min, with 5 runs per treatment. The results were averaged. Normal blonde hair was divided in two batches. The hair from the first batch was bleached with Clairol Basic White Bleach, 40 volume H2O2, for 20 min at room temperature and humidity. The hair from the second batch was first bleached as above, and then permed: Reforming lotion-10% Thioglycolic acid, pH 8.8, 20 min; neutralizer-2% hydrogen peroxide, 5 min. The oxidatively damaged hair was equilibrated for 24 hours prior to further testing. Both the bleached and the bleached/permed hair were subjected to heat treatment, as in Example 2. The heat treatment experiment involved 12 heat cycles including application of sugar or control solution before each heat application, and rinsing after the heat application. Deionized water was used as a control treatment. After the heat experiment, the hair was rinsed in water, air-dried, and equilibrated for 24 h in the humidity chamber at 25° C. and 50% RH prior to further testing. The effect of the hexoses vs. pentoses on the dry tensile strength (INSTRON) and the alpha-structure (doublet peak area, DSC) was tested on the bleached hair (Table 13). The effect of a hexose (D-glucose) vs. a pentose (D-Xylose) on wet tensile strength (DIA-STRON) was tested both on the bleached and the bleached/permed hair (Table 14). Application of 0.06M solutions of pentoses protected the bleached and the bleached/permed hair against thermal damage (α-structure; wet and dry tensile strength).

[6] = bleached hair after 12 heat cycles
[7] = bleached hair after 12 heat cycles, 0.06 M solutions, n = 100 fibers
[8] = dry bleached hair, 12 heat cycles, 0.06 M, INSTRON, n = 50 fibers
[9] = 5 heat cycles at 130° C., 0.06 M solutions
[10] = bleached hair, 5 cycles at 45° C.
[11] = bleached hair, 5 heat cycles at 130° C.
[12] = dry, bleached hair, 5 cycles at 45° C., 0.06 M solutions, n = 50 fibers
[13] = 0.1 wt % solutions, 12 heat cycles at 130° C.
[14] = bleached hair, 5 heat cycles at 130° C., 0.06 M solutions, n = 50 fibers

Molecule | Doublet Peak Area [1, 6] | Work 25% (Dry) [2, 7] | Extension-Break [2, 8] | Work 25% [2, 8] | Work-Break [2, 8] | Young's Modulus [2, 8] | other results
O=C(CO)[C@@H](O)[C@H](O)[C@H](O)CO [D-Fructose] | 6.51 +/− 1.71 J/g hair | 885.0 +/− 161.0 J/m^2 | 59.89 +/− 8.11% | 885 +/− 161 J/m^2 | 2,644 +/− 644 J/m^2 | 4,492 +/− 852 MN/m^2 | 
C[C@H](O)[C@@H](O)[C@@H](O)[C@H](O)C=O [L-Fucose] | 5.26 +/− 1.59 J/g hair | 838.2 +/− 134.5 J/m^2 | 57.01 +/− 6.18% | 838.2 +/− 134.5 J/m^2 | 2,346 +/− 543 J/m^2 | 4,331 +/− 860 MN/m^2 | 
O=C[C@@H](O)[C@H](O)[C@H](O)CO [D-Arabinose] |  |  |  |  |  |  | Doublet Peak Area [3, 9]: 11.33 +/− 2.30 J/g hair; Doublet Peak Area [1, 10]: 7.78 +/− 1.07 J/g hair; Doublet Peak Area [1, 11]: 8.22 +/− 0.90 J/g hair; Work 25% (Dry) [4]: 1,060 +/− 180 J/m^2; Work 25% [2, 12]: 1,147 +/− 191 J/m^2; protection of dry tensile strength, in words [2]: improved protection both at 45 °C and at 130 °C
O=C[C@H](O)[C@@H](O)[C@@H](O)[C@H](O)CO [D-Galactose] | 5.39 +/− 2.29 J/g hair | 945.8 +/− 168.9 J/m^2 | 58.82 +/− 6.21% | 945.8 +/− 168.9 J/m^2 | 2,696 +/− 533 J/m^2 | 4,724 +/− 913 MN/m^2 | 
O=CC[C@H](O)[C@H](O)CO [2-Deoxy-D-ribose] | 9.63 +/− 2.87 J/g hair | 1,032 +/− 163 J/m^2 | 55.35 +/− 7.52% | 1,032 +/− 163 J/m^2 | 2,872 +/− 709 J/m^2 | 5,111 +/− 871 MN/m^2 | protection effect (normalized α-structure peak area), in words ([1]; bleached and bleached/permed hair, 12 heat cycles): protection effect was found; Normalized area ([1]; bleached hair, 12 heat cycles, 0.06 M): 9.63 +/− 2.87 J/g hair; Normalized area [5]: 6.43 +/− 1.87 J/g hair
O=C[C@H](O)CO [D-Glyceraldehyde] |  |  |  |  |  |  | Doublet Peak Area [3, 13]: 13.47 +/− 3.03 J/g hair
O=C[C@H](O)[C@H](O)CO [D-Erythrose] |  |  |  |  |  |  | Doublet Peak Area [3, 13]: 13.20 +/− 7.15 J/g hair
D-Lyxosylimine |  |  |  |  |  |  | Doublet Peak Area ([3]; 0.1 wt % Lyxosylimine, 12 heat cycles at 130° C.): 11.49 +/− 3.56 J/g hair; protection of the α-structure as compared to water treatment, in words ([3]; 0.1 wt % solutions, 12 heat cycles): protected the α-structure hair
O=C[C@@H](O)[C@@H](O)[C@H](O)CO [D-Lyxose] |  |  |  |  |  |  | Doublet Peak Area [3, 9]: 8.35 +/− 0.81 J/g hair; Doublet Peak Area [1, 10]: 8.26 +/− 3.02 J/g hair; Doublet Peak Area [1, 11]: 6.23 +/− 0.59 J/g hair; Work 25% (Dry) [4]: 883.4 +/− 174.2 J/m^2; Work 25% (Dry) [2, 14]: 819.9 +/− 162.7 J/m^2; Work 25% [2, 12]: 1,157 +/− 228 J/m^2; protection of dry tensile strength, in words [2]: better improved protection at 45 °C
O=C[C@@H](O)[C@@H](O)[C@H](O)[C@H](O)CO [D-Mannose] | 5.47 +/− 1.27 J/g hair | 914.9 +/− 122.0 J/m^2 | 57.33 +/− 5.98% | 914.9 +/− 122 J/m^2 | 2,595 +/− 433 J/m^2 | 4,746 +/− 688 MN/m^2 | 
O=C[C@H](O)[C@H](O)[C@H](O)CO [D-Ribose] |  |  |  |  |  |  | Doublet Peak Area [1, 10]: 7.80 +/− 1.87 J/g hair; Doublet Peak Area [1, 11]: 9.27 +/− 2.81 J/g hair; Work 25% (Dry) [2, 14]: 1,064 +/− 171.1 J/m^2; Work 25% [2, 12]: 1,237 +/− 204 J/m^2; protection of dry tensile strength, in words [2]: improved protection both at 45 °C and at 130 °C
